Key:
[1] = tested on: Kuramochi cells; assay: BrdU cell proliferation assay (colorimetric ELISA), Kuramochi cells; type: cell-based; details: class symbols A-D
Method: A BrdU assay was used as a measure of proliferation based on the DNA replication process of proliferating cells. BrdU, a pyrimidine analog, is added to the cell culture and incorporated into the DNA of proliferating cells. The presence of the BrdU analog was then measured through a colorimetric ELISA. After fixation and permeabilization of cells, peroxidase-conjugated antibody recognizing BrdU is added and allowed to incubate, followed by thorough washing to remove unbound antibody. In order to quantify the amount of bound antibody, peroxidase substrate is added and produces a color that can be measured at 450 nm.
On day −1, Kuramochi cells (Sekisui XenoTech JCRB0098) were seeded at 2,000 cells/well in columns 2-12 of a 96 well plate (Corning, CLS3596) in 150 uL media and allowed to adhere overnight at 37 degree with 5% CO2. In order to assess specificity of the compounds, Kuramochi RB^KO cells were also plated and treated, as RB^KO cells were not expected to show a proliferative response to CCNE/CDK specific inhibitors.
On day 0, the source plate was prepared by adding 10 mM compounds and performing 3-fold serial dilutions for a 4-point dose response of each compound. Using a multichannel pipette, 2 uL of the contents of the source plate were stamped into an intermediate plate with 500 uL of RPMI 1640 Media, GlutaMAX Supplement (Life Technologies, 61870127) in each well of a Nunc 96 DeepWell™ plate, non-treated 96 DeepWell plate, 2 mL/well, sterile, natural, 60/cs (Sigma Z717274) and mixed thoroughly. 50 uL from row A of this intermediate plate were added to rows A-H of one plate of previously seeded Kuramochi cells, and each subsequent row of the intermediate plate was added to a full plate of cells.
On day 4, the plates were developed using the BrdU ELISA Cell Proliferation Assay according to manufacturer's instructions (Roche, 11647229001). Briefly, BrdU was diluted 1:100 in Gibco®, Opti-MEM® and 20 μL/well was added, shaken for 10 minutes at 350 rpm, and then returned to the incubator for 1 hour. Following incubation, the medium was discarded, and the cells were fixed by adding 200 μL of Fix/Denature solution. The anti-BrdU peroxidase antibody was diluted 1:1000 in OptiMEM, added at 100 μL/well, and incubated while shaking (350 rpm) for one hour. Three washes with PBS were performed to remove any unbound antibody, followed by the addition of 100 μL of substrate solution to each well. […] was then added to halt the reaction, and plates were read out using an Envision spectrophotometer (Perkin Elmer) set to read 450 nm absorbance. Background absorbance values from empty wells were subtracted from all samples and then normalized to DMSO treated wells.

[2] = molecular target: CDK2/Cyclin E1(14-475) (Homo sapiens, UniProt P24941); assay: Caliper LabChip EZ Reader mobility shift assay, inhibition of CDK2/Cyclin E1 activity; type: biochemical; details: class symbols A-D
Method: Inhibition of CDK2/Cyclin E1 activity in the presence of compounds of the present disclosure was evaluated using a Caliper LabChip® EZ Reader mobility shift assay. In the assay, activated CDK2/Cyclin E1 catalyzes the phosphorylation of a fluorescently tagged peptide 5-FAM-QSPKKG-CONH2 (PerkinElmer, FL Peptide 18) which induces a difference in capillary electrophoresis mobility. The peptide substrate and product were measured, and the conversion ratio was used to determine the inhibition (as % activity and IC50 values) of CDK2/Cyclin E1. Reactions contained 50 mM HEPES pH 7.5, 10 mM MgCl2, 1 mM EDTA, 2 mM DTT, 0.01% Brij35, 0.5 mg/mL BSA, 0.1% DMSO, 2.5 nM CDK2/Cyclin E1(14-475), 100 μM ATP, and 1.5 μM fluorescent peptide substrate.
Dose titrations of inhibitors in 100% DMSO were combined with 3.25 nM CDK2/Cyclin E1(14-475) and 130 μM of ATP in reaction buffer. The mixtures were incubated for 30 minutes before the addition of fluorescent peptide substrate to initiate the kinase reaction. The final conditions were 2.5 nM CDK2/Cyclin E1(14-475), 100 μM ATP, and 1.5 μM fluorescent peptide. The reactions were stopped after 100 minutes with the addition of EDTA (6 mM final EDTA concentration). The stopped reactions were analyzed on a Caliper LabChip® EZ Reader II. The conversion ratios were normalized to yield % activity, plotted against compound concentration, and fit to a four-parameter equation to determine the IC50 for each compound.

| Structure (SMILES) | IC50 [2] | IC50 [1] |
| --- | --- | --- |
| COc1cc(C(=O)N2CC3CN(C(=O)Cc4c[nH]c5cc(Cl)ccc45)CC(C(=O)N[C@@H](CCCc4cccc(O)c4)C(=O)NCCCCCN)C3C2)ccc1OC(C)C (single isomer, unassigned) [I-258] | > 10 µM | > 10 µM |
| COc1cc(C(=O)N2CC3CN(C(=O)Cc4c[nH]c5cc(Cl)ccc45)CC(C(=O)N[C@H](C(=O)NCCCCCNC(=O)OC(C)(C)C)C(C)OCc4ccccc4)C3C2)ccc1OC(C)C (single isomer, unassigned) [I-259] | ≤ 0.5 µM | 0.5 to 5 µM |
| COc1cc(C(=O)N2CC3CN(C(=O)Cc4c[nH]c5cc(Cl)ccc45)CC(C(=O)N[C@H](C(=O)NCCCCCNC(=O)OC(C)(C)C)C(C)OCc4ccccc4)C3C2)ccc1OC(C)C (single isomer, unassigned) [I-260] | 0.5 to 5 µM | > 10 µM |
| CNC(=O)[C@H](CCCc1ccccc1)NC(=O)C1CN(C(=O)Cc2c[nH]c3cc(Cl)ccc23)CC2CN(C(=O)c3ccc(OCCC4CC4)c(OC)c3)CC21 (stereo partly shown) [I-9] | 5 to 10 µM | > 10 µM |
| CNC(=O)[C@H](CCCc1ccccc1)NC(=O)C1CN(C(=O)Cc2c[nH]c3cc(Cl)ccc23)CC2CN(C(=O)c3ccc(C#N)cn3)CC21 (stereo partly shown) [I-15] | > 10 µM | > 10 µM |
| CNC(=O)[C@H](CCCc1ccccc1)NC(=O)C1CN(C(=O)Cc2c[nH]c3cc(Cl)ccc23)CC2CN(C(=O)c3cnc(OC)cn3)CC21 (stereo partly shown) [I-16] | > 10 µM | > 10 µM |
| CNC(=O)[C@H](CCCc1ccccc1)NC(=O)C1CN(C(=O)Cc2c[nH]c3cc(Cl)ccc23)CC2CN(C(=O)c3cccc(CO)n3)CC21 (stereo partly shown) [I-20] | > 10 µM | > 10 µM |
| CNC(=O)[C@H](CCCc1ccccc1)NC(=O)C1CN(C(=O)Cc2c[nH]c3cc(Cl)ccc23)CC2CN(C(=O)c3ccc(OC)nn3)CC21 (stereo partly shown) [I-21] | > 10 µM | > 10 µM |
| CNC(=O)[C@H](CCCc1ccccc1)NC(=O)C1CN(C(=O)Cc2c[nH]c3cc(Cl)ccc23)CC2CN(C(=O)c3cc(-c4ccccc4)nn3C)CC21 (stereo partly shown) [I-26] | 5 to 10 µM | > 10 µM |
| CNC(=O)[C@H](CCCc1ccccc1)NC(=O)C1CN(C(=O)Cc2c[nH]c3cc(Cl)ccc23)CC2CN(C(=O)c3cn(-c4ccccc4)cn3)CC21 (stereo partly shown) [I-27] | > 10 µM | > 10 µM |
| CNC(=O)[C@H](CCCc1ccccc1)NC(=O)C1CN(C(=O)Cc2c[nH]c3cc(Cl)ccc23)CC2CN(C(=O)c3n[nH]c4ccccc34)CC21 (stereo partly shown) [I-28] | > 10 µM | > 10 µM |
| CNC(=O)[C@H](CCCc1ccccc1)NC(=O)C1CN(C(=O)Cc2c[nH]c3cc(Cl)ccc23)CC2CN(C(=O)c3cc(C4CC4)[nH]n3)CC21 (stereo partly shown) [I-30] | > 10 µM | > 10 µM |
| CNC(=O)[C@H](CCCc1ccccc1)NC(=O)C1CN(C(=O)Cc2c[nH]c3cc(Cl)ccc23)CC2CN(C(=O)c3cc4cc(C)ccc4[nH]3)CC21 (stereo partly shown) [I-38] | > 10 µM | > 10 µM |
| CNC(=O)[C@H](CCCc1ccccc1)NC(=O)C1CN(C(=O)Cc2c[nH]c3cc(Cl)ccc23)CC2CN(C(=O)c3cc(C)n(C)n3)CC21 (stereo partly shown) [I-39] | > 10 µM | > 10 µM |
| CCOc1cnc(C(=O)N2CC3CN(C(=O)Cc4c[nH]c5cc(Cl)ccc45)CC(C(=O)N[C@@H](CCCc4ccccc4)C(=O)NC)C3C2)cn1 (stereo partly shown) [I-41] | > 10 µM | > 10 µM |
| CNC(=O)[C@H](CCCc1ccccc1)NC(=O)C1CN(C(=O)Cc2c[nH]c3cc(Cl)ccc23)CC2CN(C(=O)c3cnc(C4CC4)nc3)CC21 (stereo partly shown) [I-44] | > 10 µM | > 10 µM |

Further lines, with some results ahead:

| IC50 [2] | Structure (SMILES) | IC50 [1] |
| --- | --- | --- |
| > 10 µM | CNC(=O)[C@H](CCCc1ccccc1)NC(=O)C1CN(C(=O)Cc2c[nH]c3cc(Cl)ccc23)CC2CN(C(=O)c3ccc4oc(C)cc4c3)CC21 (stereo partly shown) [I-3] | > 10 µM |
| > 10 µM | CNC(=O)[C@H](CCCc1ccccc1)NC(=O)C1CN(C(=O)Cc2c[nH]c3cc(Cl)ccc23)CC2CN(C(=O)c3ccc(OC)cc3)CC21 (stereo partly shown) [I-5] | > 10 µM |
| 0.5 to 5 µM | CNC(=O)[C@H](CCCc1ccccc1)NC(=O)C1CN(C(=O)Cc2c[nH]c3cc(Cl)ccc23)CC2CN(C(=O)c3ccc(OC4CC4)cc3)CC21 (stereo partly shown) [I-6] | > 10 µM |
| 0.5 to 5 µM | CNC(=O)[C@H](CCCc1ccccc1)NC(=O)C1CN(C(=O)Cc2c[nH]c3cc(Cl)ccc23)CC2CN(C(=O)c3ccc(OCC(C)C)cc3)CC21 (stereo partly shown) [I-7] | 5 to 10 µM |
| > 10 µM | CNC(=O)[C@H](CCCc1ccccc1)NC(=O)C1CN(C(=O)Cc2c[nH]c3cc(Cl)ccc23)CC2CN(C(=O)c3ccc4[nH]ncc4c3)CC21 (stereo partly shown) [I-8] | > 10 µM |
| > 10 µM | CNC(=O)[C@H](CCCc1ccccc1)NC(=O)C1CN(C(=O)Cc2c[nH]c3cc(Cl)ccc23)CC2CN(C(=O)c3cnc4ccccc4c3)CC21 (stereo partly shown) [I-10] | > 10 µM |
| > 10 µM | CNC(=O)[C@H](CCCc1ccccc1)NC(=O)C1CN(C(=O)Cc2c[nH]c3cc(Cl)ccc23)CC2CN(C(=O)c3cccc(-c4ccccc4)c3)CC21 (stereo partly shown) [I-11] | > 10 µM |
| > 10 µM | CNC(=O)[C@H](CCCc1ccccc1)NC(=O)C1CN(C(=O)Cc2c[nH]c3cc(Cl)ccc23)CC2CN(C(=O)c3nc4ccccc4[nH]3)CC21 (stereo partly shown) [I-12] | > 10 µM |
| > 10 µM | CNC(=O)[C@H](CCCc1ccccc1)NC(=O)C1CN(C(=O)Cc2c[nH]c3cc(Cl)ccc23)CC2CN(C(=O)c3ccc(-c4ccncc4)cc3)CC21 (stereo partly shown) [I-14] | > 10 µM |
| > 10 µM | CNC(=O)[C@H](CCCc1ccccc1)NC(=O)C1CN(C(=O)Cc2c[nH]c3cc(Cl)ccc23)CC2CN(C(=O)c3ccc4cnccc4c3)CC21 (stereo partly shown) [I-18] | > 10 µM |
| > 10 µM | CNC(=O)[C@H](CCCc1ccccc1)NC(=O)C1CN(C(=O)Cc2c[nH]c3cc(Cl)ccc23)CC2CN(C(=O)c3ccc(OC(C)C)c(Cl)c3)CC21 (stereo partly shown) [I-24] | > 10 µM |
| 0.5 to 5 µM | CNC(=O)[C@H](CCCc1ccccc1)NC(=O)C1CN(C(=O)Cc2c[nH]c3cc(Cl)ccc23)CC2CN(C(=O)c3ccc(OC(F)(F)F)cc3)CC21 (stereo partly shown) [I-25] | > 10 µM |
| > 10 µM | CNC(=O)[C@H](CCCc1ccccc1)NC(=O)C1CN(C(=O)Cc2c[nH]c3cc(Cl)ccc23)CC2CN(C(=O)c3ccc(S(N)(=O)=O)c(OC)c3)CC21 (stereo partly shown) [I-31] | > 10 µM |
| 5 to 10 µM | CNC(=O)[C@H](CCCc1ccccc1)NC(=O)C1CN(C(=O)Cc2c[nH]c3cc(Cl)ccc23)CC2CN(C(=O)c3ccc(OC)c(O)c3)CC21 (stereo partly shown) [I-34] | > 10 µM |
| > 10 µM | CNC(=O)[C@H](CCCc1ccccc1)NC(=O)C1CN(C(=O)Cc2c[nH]c3cc(Cl)ccc23)CC2CN(C(=O)c3cc4ccccc4cn3)CC21 (stereo partly shown) [I-37] | > 10 µM |
| > 10 µM | CNC(=O)[C@H](CCCc1ccccc1)NC(=O)C1CN(C(=O)Cc2c[nH]c3cc(Cl)ccc23)CC2CN(C(=O)c3cn4ccncc4n3)CC21 (stereo partly shown) [I-40] | > 10 µM |
| > 10 µM | CNC(=O)[C@H](CCCc1ccccc1)NC(=O)C1CN(C(=O)Cc2c[nH]c3cc(Cl)ccc23)CC2CN(C(=O)c3ccc4cccn4c3)CC21 (stereo partly shown) [I-43] | > 10 µM |
| > 10 µM | CNC(=O)[C@H](CCCc1ccccc1)NC(=O)C1CN(C(=O)Cc2c[nH]c3cc(Cl)ccc23)CC2CN(C(=O)c3ccc4c(c3)CNC4=O)CC21 (stereo partly shown) [I-45] | > 10 µM |
| 0.5 to 5 µM | CNC(=O)[C@H](CCCc1ccccc1)NC(=O)C1CN(C(=O)Cc2c[nH]c3cc(Cl)ccc23)CC2CN(C(=O)c3ccc(OC(C)C)c(F)c3)CC21 (stereo partly shown) [I-46] | > 10 µM |

Source: patent US12053459B2, “CDK2 inhibitors and methods of using the same” (Cedilla Therapeutics, Inc., priority 2021, dated 2024)
